Measured values taken from paper PMC11378298 (ACS Chemical Neuroscience, 2024).
Values joined by “and” are separate entries in the source; they are usually repeats but may differ in a detail not shown here. Identical values can stand only once.

What was measured:
[1] = Cytotoxicity in BV-2 cells (PrestoBlue); details: mouse, BV-2 microglial cells
Method: The compounds were tested at 5 concentrations (0.1, 1, 10, 50, and 100 μM).
Mouse microglial cells (BV-2) were a generous gift from Professor Bozena Kaminska-Kaczmarek of the Laboratory of Molecular Neurobiology, Neurobiology Center, Nencki Institute of Experimental Biology, Polish Academy of Sciences, Warsaw, Poland. Cells were cultured in Dulbecco’s modified Eagle’s Medium-high glucose (DMEM, Glutamax Thermo Fisher) supplemented with 10% heat-inactivated fetal bovine serum (Thermo Fisher), 100 IU/mL penicillin (Merck) and 100 μg/mL streptomycin (Merck). Cells were cultured in flasks (area 175 cm^2, Nunc), and incubated at 37 °C, 5% CO2. To evaluate the level of NO, IL-6, and TNF-α and the effectiveness of the compounds tested, BV-2 microglia cells were cultured in a 96-well culture plate (5 × 10^4 cells per well, Falcon). For the measurement of cell viability and cell membrane damage, cells were placed in a 96-well culture plate (2 × 10^4 cells per well, Falcon). Before the tests, cells were grown for 24 h in the incubator (37 °C, 5% CO2).
Cell viability was evaluated using the PrestoBlue reagent (ThermoFisher), according to the manufacturer’s procedures.[87] Following 24 h of incubation with the tested molecule, PrestoBlue reagent was added to a microplate well in an amount equal to one-tenth of the remaining medium volume. The resulting mixture was incubated for 15 min at 37 °C, and the fluorescence intensity (EX 530 nm; EM 580 nm) was measured in the plate reader POLARstar Omega, (BMG Labtech).

[2] = test system: BV-2 cell line; assay: NO release in LPS-treated BV-2 cells (DAN fluorometric assay); format: cell-based, mouse; details: compound 10 μM; LPS 100 ng/mL
Method: Cell viability was determined by Presto Blue assay after 24 h. (B) Effect of compounds 11, 34, and 36 (0.1, 1, 10 μM) on NO-release (%) in LPS-treated (100 ng/mL) BV-2 cell line. NO-release was measured using a fluorometric assay with 2,3-diaminonaphthalene (DAN). (C, D) Effects of compounds 11 and 36 (0.1, 1, 10 μM) on IL-6 and TNF-α release in LPS-treated (100 ng/mL) BV-2 cell line. The IL-6 and TNF-α levels were measured using LANCE Ultra TR-FRET Detection Kit (PerkinElmer). Statistical analysis was performed using GraphPad Prism 9.0.0. All values are expressed as mean with SD. Differences among groups were evaluated by one-way ANOVA followed by posthoc analysis (Dunnett’s multiple comparison tests) vs. control group (LPS on BV-2 cells and okadaic acid on HT-22 cells) and were considered statistically significant if p < 0.05 (*p < 0.05, **p < 0.01, ***p < 0.001, and ****p < 0.0001).
An important role in the pathogenesis of AD has been attributed to neuroinflammation resulting from the activation of astrocytes and microglial cells.[55] These processes lead to increased production of proinflammatory cytokines such as TNF-α or IL-6 that activate processes, e.g., tau hyperphosphorylation, causing injury and cell death.[56] A standard model of neuroinflammation is based on lipopolysaccharide-stimulated BV-2 microglial cells. In this study, we used this model to evaluate the anti-inflammatory properties of compounds 11, 34, and 36.[57] Our evaluation focused on monitoring the levels of key inflammatory markers, including nitric oxide (NO, Figure 6B) and cytokines, TNF-α and IL-6 (Figure 6C,D).
The cells were pretreated with tested compounds for 1 h. […]
The NO level in the culture supernatants was measured using 2,3-diaminonaphthalene (DAN) reagent according to the method of Nussler et al.[88] After 15 min of incubation at room temperature, the fluorescence intensity (EX 360; EM 440 nm) was measured using a microplate reader POLARstar Omega, (BMG Labtech). The values of nitric oxide were calculated as a percentage of control (maximal response of LPS).

[3] = human liver microsomes; for % of the compound remaining after 2 h of incubation: 2 h (120 min), 37 °C
Method: The primary site of drug metabolism in humans is the liver. Therefore, we used human liver microsomes (HLM) to determine the metabolic stability of selected compounds (Table 3). The compounds were incubated with HLMs for 2 h, and the resulting mixtures were analyzed with UPLC-MS (for details including the UPLC-MS spectra, see Table S10 and Figures S17–S22 in the SI).
All protocols used for the evaluation of drug-like properties (ADME-To parameters) were described in our previous works.[58],[89] Precoated PAMPA Plate System Gentest was obtained from Corning, (Tewksbury, MA, USA). The metabolic stability assay was performed on human liver microsomes (HLMs, Sigma-Aldrich, St. Louis, MO, USA). The assays with microsomes were supported by MetaSite 6.0.1 software (Molecular Discovery Ltd. Hertfordshire, UK). To predict potential drug–drug interactions (DDIs) the influence on CYP3A4, CYP2D6, and CYP2C9 were carried with use of respective P450-Glo kit (Promega, Madison, WI, USA). The luminescence signal and absorbance were measured by using a microplate reader EnSpire PerkinElmer (Waltham, MA, USA). The LC/MS/MS analyses used in PAMPA and the assays with use of HLMs were obtained on Waters ACQUITY TQD system (Waters, Milford, CT, USA). […] Statistical significances and IC50 values were calculated by Graph Pad Prism 9 software.
Table S9. Differences in binding energies given for methods in gas and water environment.
Method gas [kcal/mol] water [kcal/mol]
Metabolic stability of compounds 11 and 36 in human liver microsomes (HLMs)
Table S10. The molecular masses and metabolic pathways of compounds 11 and 36 determined using human liver microsomes.
Substrate mass % mass of the Metabolic pathway*
(m/z) remaining metabolite
*most probable metabolic pathways were estimated by MS analyses supported by in silico prediction using MetaSite 6.0.1 and ADMET Predictor tools
Figure S17. The MetaSite 6.0.1. software prediction of the most probabl e sites of compounds’ 11 and 36 metabolism. The darker the red color - the higher the probability of being involved […]

[4] = PAMPA; for permeability classification: versus caffeine

With NC(=O)N1CC=C(c2ccnc(NC(=O)C3CC3)c2)C1 [Compound 11, 3-(2-(Cyclopropanecarboxamido)pyridin-4-yl)-2,5-dihydro-1H-pyrrole-1-carboxamide] the IC50 at 24 h [1] was 23.4 ± 1.7 µM, the NO release [2] was “significantly reducing the release” and the “% of the compound remaining after 2 h of incubation” value [3] was 100%. The permeability classification [4] was “might not penetrate through the biological membranes”.

In the case of O=C(Nc1cc(-c2ccc(-c3ncon3)s2)ccn1)C1CC1 [Compound 36, N-(4-(5-(1,2,4-Oxadiazol-3-yl)thiophen-2-yl)pyridin-2-yl)cyclopropanecarboxamide], the IC50 at 24 h [1] is reported as 89.3 ± 4.9 µM, the NO release [2] is reported as “significantly reducing the release” and the “% of the compound metabolized” value ([3]; 2 h) is reported as 11%. For the same compound, the “% of the compound remaining after 2 h of incubation” value [3] was 88.61% and 88.6%, the permeability classification [4] was “well permeable” and the Pe ([4]; unit not given) was 9.4.
